Data taken from ChEMBL document CHEMBL1201862, “PubChem BioAssay data set” (2004).
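Briefly, cells in 96-well plates were exposed to five compound concentrations for 48 h, and endpoints were estimated by linear interpolation. GI50 is the concentration that inhibits growth by half.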 Activity calls are given as the source filed them. No stated cut-off is given here; in the data, active = GI50 up to about 1.1 µM and inactive = higher.

Key:
Assay in all cases: growth of human tumour cells (NCI), 48 h
[1] = system: 786-0
[2] = system: A549
[3] = system: ACHN
[4] = system: CAKI-1
[5] = system: CCRF-CEM
[6] = system: COLO 205
[7] = system: DLD-1
[8] = system: DMS-114
[9] = system: DMS-273
[10] = system: HCC 2998
[11] = system: HCT-116
[12] = system: HL-60
[13] = system: HOP-18
[14] = system: HOP-62
[15] = system: HOP-92
[16] = system: HT-29
[17] = system: IGROV-1
[18] = system: K562
[19] = system: KM12
[20] = system: LOX IMVI
[21] = system: LXFL 529
[22] = system: M14
[23] = system: M19-MEL
[24] = system: MOLT-4
[25] = system: Malme-3M
[26] = system: NCI-H23
[27] = system: NCI-H460
[28] = system: NCI-H522
[29] = system: OVCAR-3
[30] = system: OVCAR-4
[31] = system: OVCAR-5
[32] = system: OVCAR-8
[33] = system: RXF 393
[34] = system: RXF 631
[35] = system: SF-268
[36] = system: SF-295
[37] = system: SF-539
[38] = system: SK-MEL-28
[39] = system: SK-MEL-5
[40] = system: SN12C
[41] = system: SNB-19
[42] = system: SNB-75
[43] = system: SNB-78
[44] = system: SR
[45] = system: SW-620
[46] = system: TK-10
[47] = system: U-251
[48] = system: UACC-257
[49] = system: UACC-62
[50] = system: UO-31
[51] = system: XF498
[52] = system: A498
[53] = system: EKVX
[54] = system: KM-20L2
[55] = system: RPMI-8226
[56] = system: SK-MEL-2
[57] = system: SK-OV-3
[58] = system: HCT-15
[59] = system: NCI-H226

Measured: GI50

Cc1cccc(NC(=O)CC(=O)N2N=C(N(CCC#N)c3ccc(Cl)cc3)CC2c2ccccc2)c1 (stereo unspecified)
inactive: [1] > 100 µM | [2] > 100 µM | [3] > 100 µM | [4] > 100 µM | [5] > 100 µM | [6] > 100 µM | [7] > 100 µM | [8] > 100 µM | [9] > 100 µM | [10] > 100 µM | [11] > 100 µM | [12] > 100 µM | [13] > 100 µM | [14] > 100 µM | [15] > 100 µM | [16] > 100 µM | [17] > 100 µM | [18] > 100 µM | [19] > 100 µM | [20] > 100 µM | [21] > 100 µM | [22] > 100 µM | [23] > 100 µM | [24] > 100 µM | [25] > 100 µM | [26] > 100 µM | [27] > 100 µM | [28] > 100 µM | [29] > 100 µM | [30] > 100 µM | [31] > 100 µM | [32] > 100 µM | [33] > 100 µM | [34] > 100 µM | [35] > 100 µM | [36] > 100 µM | [37] > 100 µM | [38] > 100 µM | [39] > 100 µM | [40] > 100 µM | [41] > 100 µM | [42] > 100 µM | [43] > 100 µM | [44] > 100 µM | [45] > 100 µM | [46] > 100 µM | [47] > 100 µM | [48] > 100 µM | [49] > 100 µM | [50] > 100 µM | [51] > 100 µM

CC(=O)N[C@@H]1C(O)CN2C(=O)C(=O)O[C@H](C(O)CO)[C@@H]12 (stereo partly specified)
inactive: [1] > 100 µM | [52] > 100 µM | [2] > 100 µM | [3] > 100 µM | [5] > 100 µM | [6] > 100 µM | [7] > 100 µM | [8] > 100 µM | [9] > 100 µM | [53] > 100 µM | [10] > 100 µM | [11] > 100 µM | [12] > 100 µM | [13] 74 µM | [14] > 100 µM | [15] > 100 µM | [16] > 100 µM | [17] > 100 µM | [18] > 100 µM | [54] > 100 µM | [19] > 100 µM | [20] > 100 µM | [21] > 100 µM | [23] > 100 µM | [24] > 100 µM | [25] > 100 µM | [27] > 100 µM | [28] > 100 µM | [29] > 100 µM | [31] > 100 µM | [32] > 100 µM | [55] > 100 µM | [33] > 100 µM | [34] > 100 µM | [35] > 100 µM | [36] > 100 µM | [37] > 100 µM | [38] > 100 µM | [56] > 100 µM | [57] > 100 µM | [41] > 100 µM | [42] > 100 µM | [43] > 100 µM | [45] > 100 µM | [46] > 100 µM | [47] > 100 µM | [48] > 100 µM | [50] > 100 µM | [51] > 100 µM

CCOC(=O)CCC(=O)C1c2cccc(O)c2C(=O)c2c(O)cc(C)cc21 (stereo unspecified)
active: [2] 0.695 µM | [3] 0.993 µM | [5] 0.519 µM | [8] 0.296 µM | [9] 0.785 µM | [10] 0.507 µM | [11] 0.805 µM | [12] 0.676 µM | [13] 0.515 µM | [14] 0.656 µM | [17] 0.289 µM | [18] 0.429 µM | [19] 0.245 µM | [20] 0.729 µM | [21] 0.643 µM | [23] 0.637 µM | [59] 0.719 µM | [26] 0.962 µM | [27] 0.342 µM | [28] 0.392 µM | [29] 0.533 µM | [30] 0.569 µM | [31] 0.706 µM | [32] 0.764 µM | [55] 1.01 µM | [33] 0.391 µM | [34] 0.771 µM | [35] 0.542 µM | [36] 0.332 µM | [37] 0.226 µM | [56] 0.344 µM | [39] 0.676 µM | [57] 0.865 µM | [41] 0.327 µM | [42] 0.578 µM | [43] 0.542 µM | [44] 0.743 µM | [45] 0.948 µM | [47] 0.252 µM | [49] 0.434 µM | [50] 0.627 µM | [51] 0.211 µM
inactive: [1] 1.32 µM | [52] 2.28 µM | [4] 1.79 µM | [6] 2 µM | [7] 1.21 µM | [53] 1.82 µM | [15] 1.46 µM | [16] 2.47 µM | [54] 1.83 µM | [22] 1.4 µM | [24] 2.1 µM | [25] 1.34 µM | [38] 1.48 µM | [40] 1.79 µM | [46] 1.87 µM | [48] 1.41 µM
0.826 µM: [58]

NC1=NC(=O)/C(=C/c2ccccc2[N+](=O)[O-])C(N)=N1
inactive: [1] > 100 µM | [2] > 100 µM | [3] > 100 µM | [4] > 100 µM | [5] > 100 µM | [6] > 100 µM | [7] > 100 µM | [8] > 100 µM | [9] > 100 µM | [53] > 100 µM | [10] > 100 µM | [11] > 100 µM | [12] > 100 µM | [13] > 100 µM | [14] > 100 µM | [15] > 100 µM | [16] > 100 µM | [17] > 100 µM | [18] > 100 µM | [54] > 100 µM | [19] > 100 µM | [20] > 100 µM | [21] > 100 µM | [22] > 100 µM | [23] > 100 µM | [24] > 100 µM | [25] > 100 µM | [59] > 100 µM | [26] > 100 µM | [27] > 100 µM | [28] > 100 µM | [29] > 100 µM | [30] > 100 µM | [31] > 100 µM | [32] > 100 µM | [55] > 100 µM | [33] > 100 µM | [34] > 100 µM | [36] > 100 µM | [37] > 100 µM | [38] > 100 µM | [56] > 100 µM | [39] > 100 µM | [57] > 100 µM | [40] > 100 µM | [41] > 100 µM | [42] > 100 µM | [43] > 100 µM | [44] > 100 µM | [45] > 100 µM | [46] > 100 µM | [47] > 100 µM | [48] > 100 µM | [49] > 100 µM | [50] > 100 µM | [51] > 100 µM
> 100 µM: [58]
